≈ marks a conversion by molar mass, not a printed value. Square brackets hold non-standard residues; d marks the D form. Peptide text beside a SMILES is read from it. 2Pal = N[C@@H](Cc1ccccn1)C(=O)O; 4Pal = N[C@@H](Cc1ccncc1)C(=O)O
Legend:
[1] = Permeability of the compound at donor pH 7.4 and acceptor pH 7.4 after 3 hrs incubation by PAMPA analysis; format: ADME; conditions: read-out: permeability
[2] = Lipophilicity, log D of the compound at pH 7.4 by ChromlogD analysis; format: physicochemical; conditions: buffer
[3] = Solubility of the compound in phosphate buffer at pH 7.4 by chemi-luminescent nitrogen detection method; format: physicochemical

A Papp at 3 h [1] of less than 0.65 ×10⁻⁶ cm/s, a chromatographic logD [2] of 4.65 and a solubility [3] of 372 µM (≈ 261 µg/mL) were found for `CC(C)C[C@@H]1NC(=O)[C@@H](CC(C)C)NC(=O)[C@H]([C@@H](C)O)NC(=O)[C@H](Cc2ccc(O)cc2)NC(=O)[C@@H]2CCCN2C(=O)[C@H](CC(C)C)NC1=O` in this work.

A Papp at 3 h [1] of 14.4 ×10⁻⁶ cm/s, a chromatographic logD [2] of 6.19 and a solubility [3] of 192 µM (≈ 140 µg/mL) were found for `CC(C)C[C@@H]1NC(=O)[C@@H](CC(C)C)N(C)C(=O)[C@H](CC(C)C)NC(=O)[C@H](Cc2ccc(O)cc2)NC(=O)[C@@H]2CCCN2C(=O)[C@H](CC(C)C)NC1=O` in this work.

A chromatographic logD [2] of 5.53 and a solubility [3] of 170 µM (≈ 121 µg/mL) were found for `CC(C)C[C@@H]1NC(=O)[C@H](Cc2ccc(O)cc2)NC(=O)[C@@H]2CCCN2C(=O)[C@H](CC(C)C)NC(=O)[C@H](CC(C)C)NC(=O)[C@@H](CC(C)C)NC1=O` in this work.

A Papp at 3 h [1] of 13 ×10⁻⁶ cm/s, a chromatographic logD [2] of 5.98 and a solubility [3] of 51.7 µM (≈ 42.7 µg/mL) were found for `CC(C)C[C@@H]1NC(=O)[C@@H](CC(C)C)NC(=O)[C@H](CC(C)C)NC(=O)[C@@H](CC(C)C)NC(=O)[C@H](Cc2ccc(O)cc2)NC(=O)[C@@H]2CCCN2C(=O)[C@H](CC(C)C)NC1=O` in this work.

A chromatographic logD [2] of 5.07 and a solubility [3] of 324 µM (≈ 231 µg/mL) were found for `CC(C)C[C@@H]1NC(=O)[C@H](CC(C)C)NC(=O)[C@@H](CC(C)C)NC(=O)[C@H](Cc2ccc(O)cc2)NC(=O)[C@@H]2CCCN2C(=O)[C@H](CC(C)C)NC1=O` in this work.

A Papp at 3 h [1] of 17 ×10⁻⁶ cm/s, a chromatographic logD [2] of 6.11 and a solubility [3] of 148 µM (≈ 108 µg/mL) were found for `CC(C)C[C@@H]1NC(=O)[C@@H](CC(C)C)NC(=O)[C@](C)(CC(C)C)NC(=O)[C@H](Cc2ccc(O)cc2)NC(=O)[C@@H]2CCCN2C(=O)[C@H](CC(C)C)NC1=O` in this work.

A Papp at 3 h [1] of 1.05 ×10⁻⁶ cm/s, a chromatographic logD [2] of 4.2 and a solubility [3] of 371 µM (≈ 260 µg/mL) were found for `CC(C)C[C@@H]1NC(=O)[C@@H](CC(C)C)NC(=O)[C@@H]([C@H](C)O)NC(=O)[C@H](Cc2ccc(O)cc2)NC(=O)[C@@H]2CCCN2C(=O)[C@H](CC(C)C)NC1=O` in this work.

A Papp at 3 h [1] of 30.3 ×10⁻⁶ cm/s, a chromatographic logD [2] of 6.65 and a solubility [3] of 102 µM (≈ 86.1 µg/mL) were found for `CC(C)C[C@@H]1NC(=O)[C@@H](CC(C)C)NC(=O)[C@H](CC(C)C)NC(=O)[C@@](C)(CC(C)C)NC(=O)[C@H](Cc2ccc(O)cc2)NC(=O)[C@@H]2CCCN2C(=O)[C@H](CC(C)C)NC1=O` in this work.

A Papp at 3 h [1] of 35 ×10⁻⁶ cm/s, a chromatographic logD [2] of 6.56 and a solubility [3] of 78 µM (≈ 56.7 µg/mL) were found for `CC(C)C[C@@H]1NC(=O)[C@H](Cc2ccc(O)cc2)NC(=O)[C@@H]2CCCN2C(=O)[C@H](CC(C)C)NC(=O)[C@](C)(CC(C)C)NC(=O)[C@@H](CC(C)C)NC1=O` in this work.

A Papp at 3 h [1] of 34.7 ×10⁻⁶ cm/s, a chromatographic logD [2] of 7.52 and a solubility [3] of 103 µM (≈ 76.3 µg/mL) were found for `CC(C)C[C@@H]1NC(=O)[C@H](Cc2ccc(O)cc2)NC(=O)[C@@H]2CCCN2C(=O)[C@H](CC(C)C)NC(=O)[C@H](CC(C)C)N(C)C(=O)[C@@H](CC(C)C)N(C)C1=O` in this work.

A Papp at 3 h [1] of 1.35 ×10⁻⁶ cm/s, a chromatographic logD [2] of 4.75 and a solubility [3] of 485 µM (≈ 363 µg/mL) were found for `CC(C)C[C@@H]1NC(=O)[C@H](Cc2ccc(O)cc2)NC(=O)[C@@H]2CCCN2C(=O)[C@H](CC(C)C)NC(=O)[C@H](CC(C)C)NC(=O)[C@H](Cc2ccccn2)NC1=O` (cyclo([2Pal]LLPYL)) in this work.

A Papp at 3 h [1] of 18.5 ×10⁻⁶ cm/s, a chromatographic logD [2] of 6.88 and a solubility [3] of 122 µM (≈ 103 µg/mL) were found for `CC(C)C[C@@H]1NC(=O)[C@@H](CC(C)C)NC(=O)[C@H](Cc2ccc(O)cc2)NC(=O)[C@@H]2CCCN2C(=O)[C@H](CC(C)C)NC(=O)[C@](C)(CC(C)C)NC(=O)[C@@H](CC(C)C)NC1=O` in this work.

A Papp at 3 h [1] of less than 0.65 ×10⁻⁶ cm/s, a chromatographic logD [2] of 4.45 and a solubility [3] of 451 µM (≈ 337 µg/mL) were found for `CC(C)C[C@@H]1NC(=O)[C@H](Cc2ccc(O)cc2)NC(=O)[C@@H]2CCCN2C(=O)[C@H](CC(C)C)NC(=O)[C@H](CC(C)C)NC(=O)[C@H](Cc2ccncc2)NC1=O` (cyclo([4Pal]LLPYL)) in this work.

A chromatographic logD [2] of 5.57 and a solubility [3] of 248 µM (≈ 177 µg/mL) were found for `CC(C)C[C@@H]1NC(=O)[C@@H](CC(C)C)NC(=O)[C@@H](CC(C)C)NC(=O)[C@H](Cc2ccc(O)cc2)NC(=O)[C@H]2CCCN2C(=O)[C@@H](CC(C)C)NC1=O` in this work.

A chromatographic logD [2] of 8.32 and a solubility [3] of 53.7 µM (≈ 40.5 µg/mL) were found for `CC(C)C[C@@H]1NC(=O)[C@H](Cc2ccc(O)cc2)N(C)C(=O)[C@@H]2CCCN2C(=O)[C@H](CC(C)C)NC(=O)[C@H](CC(C)C)N(C)C(=O)[C@@H](CC(C)C)N(C)C1=O` in this work.

A Papp at 3 h [1] of 20 ×10⁻⁶ cm/s, a chromatographic logD [2] of 6.05 and a solubility [3] of 206 µM (≈ 153 µg/mL) were found for `CC(C)C[C@@H]1NC(=O)[C@H](Cc2ccc(O)cc2)NC(=O)[C@@H]2CCCN2C(=O)[C@H](CC(C)C)NC(=O)[C@H](CC(C)C)NC(=O)[C@H](Cc2ccccc2)NC1=O` (cyclo(FLLPYL)) in this work.

A Papp at 3 h [1] of 30 ×10⁻⁶ cm/s, a chromatographic logD [2] of 7.21 and a solubility [3] of 28.5 µM (≈ 23.9 µg/mL) were found for `CC(C)C[C@@H]1NC(=O)[C@@H](CC(C)C)NC(=O)[C@H](CC(C)C)NC(=O)[C@@](C)(CC(C)C)NC(=O)[C@@H](Cc2ccc(O)cc2)NC(=O)[C@@H]2CCCN2C(=O)[C@H](CC(C)C)NC1=O` in this work.

— ChEMBL document CHEMBL3400006, “Improving the passive permeability of macrocyclic peptides: Balancing permeability with other physicochemical properties” (Bioorg Med Chem, 2015)
